Calls of active or inactive are those of the source.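 How the source made its calls: active means compounds giving half or more protection of infected cells from virus-caused growth loss, again on retest; inactive means the rest.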

The text below walks through data of PubChem BioAssay AID179 (DTP/NCI, 2004).

This experiment relates to CEM cells HIV-1 protection, formazan growth assay. Description: NCI AIDS Antiviral Assay. The settings on record: for IC50: measured here: growth of uninfected CEM cells. The method, boiled down: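 Protection of CEM cells against HIV-1 was scored from cell growth (soluble formazan) across five concentrations, with parallel uninfected cells. Lack of protection may reflect toxicity.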

As to `CS(=O)(=O)Nc1ccc2oc(=O)c3ccccc3c2c1`, the EC50 (as a rule, the concentration that produces a half-maximal response) is more than 200 µM and the IC50 (in general, the concentration at which inhibition is half-maximal) amounted to 24 µM. `C=CCN(Cc1ccncc1)C(=O)C(O)(c1ccccc1)c1ccccc1`: the EC50 is more than 200 µM and the IC50 was determined as 186 µM. `CN(C)CCOc1ccc(-c2c(Oc3ccccc3)c(=O)oc3ccccc23)cc1`: the EC50 is more than 200 µM and the IC50 came out at 8.71 µM. For the molecule `COC(=O)C(C(=O)C(=O)Nc1c(C)cccc1C)c1cnc2ccccc2n1` (configuration not stated), the EC50 is more than 50.1 µM and the concentration for half-maximal inhibition (IC50) is more than 50.1 µM. Consider `CC[C@@H]1OC2(C)CC(S(=O)(=O)c3ccccc3O)CC1O2` (some centres not stated), for which the EC50 was more than 794 µM and the IC50 was determined as 741 µM. For `CN(C)NP(=O)(NN(C)C)NN(C)C`, the EC50 was more than 200 µM and the IC50 is more than 200 µM. With `CC(C)=NOC(=O)Nc1cccc2c1OCO2`, the EC50 is more than 200 µM and the IC50 is more than 200 µM. As to `COc1cccc(-c2cc(=O)c3cc(C)c(C)c(C(=O)O)c3o2)c1`, the result was inactive.

On to `CCC(C)C(NC(=O)c1ccccc1SC(=O)CCCC[n+]1ccccc1)C(N)=O` (configuration not stated), for which the EC50 was more than 35.5 µM and the IC50 was 4.07 µM. Taken in the same sequence, the figures for `CCOC(=O)c1c(OC)cc2n(c1=O)Cc1cc3ccccc3nc1-2` were more than 10 µM and more than 10 µM. For `COc1cc2c(cc1OC)C(C(=O)c1cccc(OC)c1OC)C(=O)N(C)CC2` (configuration not stated), the EC50 is more than 126 µM and the IC50 was more than 126 µM. Turning to `Oc1ccc(-c2nc3ccccc3s2)c(O)c1`, the EC50 is more than 148 µM and the half-maximal inhibitory concentration (IC50) amounted to 27.5 µM. `COCC1C(=O)c2cc3c(cc2C12C=CC1(C=C2)OCCO1)OCO3` (configuration not stated): the EC50 was more than 275 µM and the IC50 amounted to 11 µM. In the case of `c1ccc2c(c1)nnn2C1CCCCO1` (configuration not stated), the EC50 was more than 200 µM and the IC50 was more than 200 µM. Take `C(/C=C/N1CCCC1)=C\c1nc(N2CCCC2)c2ccccc2n1`: the EC50 is more than 42.7 µM and the IC50 worked out at 11.5 µM.

As to `CCOc1ccccc1N1C(=O)C(=O)C(c2nc3ccccc3o2)C(=O)C1=O`, the outcome was inactive.

As for `O=c1nc2c(c(-c3ccccc3Cl)[nH]1)COC/C2=C\c1ccccc1Cl`, the EC50 was more than 200 µM and the IC50 stood at 89.1 µM. As for `O=C(NNc1nc2ccccc2n2cccc12)c1cnccn1`, the EC50 was more than 2 µM and the IC50 was determined as 0.417 µM. Turning to `O=[N+]([O-])c1ccc(Sc2c3ccccc3nc3cc(Cl)ccc23)cc1`, the EC50 is more than 3.98 µM and the half-inhibitory concentration (IC50) was more than 3.98 µM.

With `CC(C)(C)CS(=O)(=O)O.[Ag]`, the EC50 is more than 200 µM and the IC50 amounted to 10.5 µM. For `O=[N+]([O-])c1ccc(S(=O)(=O)c2ccc([N+](=O)[O-])cc2C(F)(F)F)c(C(F)(F)F)c1`, the outcome was inactive. With `O=Nn1cc(-c2cc3ccccc3n2N=O)c2ccccc21`, the EC50 was more than 200 µM and the half-inhibitory concentration (IC50) worked out at 97.7 µM. Take `CCN(CC)C(=O)C1C[C@@H](O)CN1C(=O)c1ccc(OC)c(OC)c1` (some centres not stated): the EC50 was more than 200 µM and the IC50 was more than 200 µM. As for `C[C@@H]1CC[C@@]2(OC1)O[C@H]1C[C@H]3[C@@H]4CC[C@H]5C[C@@H](OC6OC(CO)C(OC7OC(CO)C(O)C(OC8OCC(O)C(O)C8O)C7OC7OC(CO)C(O)C(O)C7O)C(O)C6O)CC[C@]5(C)[C@H]4CC[C@]3(C)[C@H]1[C@@H]2C` (some centres not stated), the EC50 is more than 100 µM and the IC50 turned out to be 6.17 µM. Taken in the same sequence, the figures for `CC1OC(OC2C(OC(=O)[C@]34CCC(C)(C)CC3C3=CCC5[C@@]6(C)C[C@H](O)[C@H](OC7OC(COC8OC(CO)C(O)C(O)C8O)C(O)C(O)C7O)[C@@](C)(C(=O)O)C6CC[C@@]5(C)C3(C)CC4)OCC(O)C2O)C(O)C(O)C1OC1OCC(O)C(O)C1O` (some centres not stated) were more than 110 µM and more than 110 µM. Turning to `CC(=O)SC1CC(=O)OC1=O` (configuration not stated), the EC50 was more than 200 µM and the IC50 is more than 200 µM. `O=C1C(=O)C(Br)(Br)C(Br)=C1Br`: the result was inactive.

For the molecule `COc1cc2c(oc(=O)c3c4oc([Si](C)(C)C)cc4cc(OC)c23)c2cccc(OCc3ccccc3)c12`, the EC50 is more than 0.501 µM and the IC50 is more than 0.501 µM.
